Laboratory results: patent publication US20100015141A1, “4-PHENOXY-6-ARYL-1H-PYRAZOLO[3,4-D]PYRIMIDINE AND N-ARYL-6-ARYL-1H-PYRAZOLO[3,4-D]PYRIMIDIN-4-AMINE COMPOUNDS, THEIR USE AS MTOR KINASE AND PI3 KINASE INHIBITORS, AND THEIR SYNTHESES” (Wyeth, priority 2008, published 2010)

Tests used:
Assay type in all cases: biochemical
PI3K-γ = PI3K-γ (Homo sapiens, UniProt P48736); assay: PI3K-gamma fluorescence polarization assay; conditions: 20 μM PIP2, 25 μM ATP
Description: (§1) The reaction buffer was 20 mM HEPES pH7.5, 2 mM MgCl2, 0.05% CHAPS, and 0.01% βME (added fresh). The substrate solution was 40 μM PIP2 (diC8, Echelon, Salt Lake City Utah cat #P-4508, 1 mM in water) and 50 μM ATP in the reaction buffer. Nunc 384-well black polypropylene fluorescent plates were used for PI3K assays. The assay is run by putting 9.5 μl of freshly diluted enzyme in the reaction buffer per well, adding 0.5 μl of diluted drug or DMSO, and mixing. Then 10 μl of the substrate solution is added to each well to start the reaction. A final concentration of 20 μM PIP2 and 25 μM ATP in the reaction was used. Reactions were allowed to proceed for 30-60 minutes at room temperature. After 30-60 minutes, 20 μl of a solution of 10 nM TAMRA detector (Red detector probe-Echelon) and 2.5 uM of GST-murineGRP (1.5 mg/ml in 17% glycerol) was added per well to stop the reaction. The resulting solution was mixed well and allowed to stand for 90-110 minutes before reading plate. Assay Plates were read on Perkin-Elmer Envision plate readers with appropriate filters for Tamra [BODIPY-TMRI(1,3,4,5)P4]. Data obtained were used to calculate enzymatic activity and enzyme inhibition by inhibitor compounds. It is important to keep Red probe solutions dark. This procedure is adapted from Echelon Biosciences Inc procedure for their PI3-Kinase fluorescence polarization activity Assay kit Product number K-1100.

PI3K-α = PI3K-α (Homo sapiens, UniProt P42336); assay: PI3K-alpha fluorescence polarization assay; conditions: 20 μM PIP2, 25 μM ATP
Description: as §1

mTOR = mTOR (Homo sapiens, UniProt P42345); assay: mTOR enzyme assay (DELFIA, His6-S6K phosphorylation); set-up: FLAG; conditions: 100 μM ATP, 1.25 μM His6-S6K

Sequence of PI3K-α (P42336 whole entry, species assumed): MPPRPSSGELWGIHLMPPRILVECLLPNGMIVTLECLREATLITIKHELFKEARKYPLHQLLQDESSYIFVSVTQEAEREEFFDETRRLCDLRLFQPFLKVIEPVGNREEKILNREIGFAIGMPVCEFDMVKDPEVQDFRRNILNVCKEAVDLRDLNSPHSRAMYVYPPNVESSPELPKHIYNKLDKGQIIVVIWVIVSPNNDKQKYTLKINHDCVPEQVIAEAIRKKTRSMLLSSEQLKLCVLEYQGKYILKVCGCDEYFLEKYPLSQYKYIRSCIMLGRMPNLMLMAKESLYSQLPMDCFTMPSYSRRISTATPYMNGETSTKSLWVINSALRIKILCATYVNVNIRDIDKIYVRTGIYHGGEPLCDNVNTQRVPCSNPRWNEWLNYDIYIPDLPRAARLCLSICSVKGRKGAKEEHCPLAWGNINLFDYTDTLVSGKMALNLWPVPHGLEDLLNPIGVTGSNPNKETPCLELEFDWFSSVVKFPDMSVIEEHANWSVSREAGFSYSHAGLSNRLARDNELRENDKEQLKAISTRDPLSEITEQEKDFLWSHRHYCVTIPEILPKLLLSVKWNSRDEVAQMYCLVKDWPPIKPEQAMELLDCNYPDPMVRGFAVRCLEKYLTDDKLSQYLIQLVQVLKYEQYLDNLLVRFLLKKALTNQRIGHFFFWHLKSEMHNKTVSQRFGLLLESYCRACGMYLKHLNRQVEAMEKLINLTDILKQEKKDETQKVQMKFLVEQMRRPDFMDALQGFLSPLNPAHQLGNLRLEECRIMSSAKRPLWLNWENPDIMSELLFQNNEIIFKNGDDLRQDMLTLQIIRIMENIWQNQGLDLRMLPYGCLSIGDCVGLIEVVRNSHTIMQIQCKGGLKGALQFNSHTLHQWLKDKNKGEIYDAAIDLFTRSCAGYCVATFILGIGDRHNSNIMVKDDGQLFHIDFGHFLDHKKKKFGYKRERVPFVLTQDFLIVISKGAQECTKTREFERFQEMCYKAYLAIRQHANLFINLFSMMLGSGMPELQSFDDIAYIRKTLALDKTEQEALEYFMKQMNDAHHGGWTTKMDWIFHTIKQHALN
Sequence of PI3K-α (P27986 whole entry partner, species assumed): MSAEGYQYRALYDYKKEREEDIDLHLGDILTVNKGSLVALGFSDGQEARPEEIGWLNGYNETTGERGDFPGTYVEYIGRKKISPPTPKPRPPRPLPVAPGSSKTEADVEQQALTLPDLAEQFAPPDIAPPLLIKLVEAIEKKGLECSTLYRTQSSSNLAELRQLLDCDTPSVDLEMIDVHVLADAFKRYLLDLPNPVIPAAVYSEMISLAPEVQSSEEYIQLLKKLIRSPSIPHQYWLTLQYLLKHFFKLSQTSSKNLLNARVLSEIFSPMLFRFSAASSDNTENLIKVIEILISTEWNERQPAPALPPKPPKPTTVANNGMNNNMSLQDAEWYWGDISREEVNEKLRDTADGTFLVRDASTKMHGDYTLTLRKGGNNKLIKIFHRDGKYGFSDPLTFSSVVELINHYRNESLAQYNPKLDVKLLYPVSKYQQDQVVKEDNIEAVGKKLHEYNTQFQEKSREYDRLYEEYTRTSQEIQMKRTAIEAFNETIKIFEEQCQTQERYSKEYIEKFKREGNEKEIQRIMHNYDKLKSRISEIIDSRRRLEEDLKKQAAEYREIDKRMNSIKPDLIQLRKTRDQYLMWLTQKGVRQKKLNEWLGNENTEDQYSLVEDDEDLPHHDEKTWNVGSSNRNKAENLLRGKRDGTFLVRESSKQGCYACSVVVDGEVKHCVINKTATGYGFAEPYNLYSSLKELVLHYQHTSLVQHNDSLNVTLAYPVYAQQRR
Sequence of PI3K-γ (P48736 whole entry, species assumed): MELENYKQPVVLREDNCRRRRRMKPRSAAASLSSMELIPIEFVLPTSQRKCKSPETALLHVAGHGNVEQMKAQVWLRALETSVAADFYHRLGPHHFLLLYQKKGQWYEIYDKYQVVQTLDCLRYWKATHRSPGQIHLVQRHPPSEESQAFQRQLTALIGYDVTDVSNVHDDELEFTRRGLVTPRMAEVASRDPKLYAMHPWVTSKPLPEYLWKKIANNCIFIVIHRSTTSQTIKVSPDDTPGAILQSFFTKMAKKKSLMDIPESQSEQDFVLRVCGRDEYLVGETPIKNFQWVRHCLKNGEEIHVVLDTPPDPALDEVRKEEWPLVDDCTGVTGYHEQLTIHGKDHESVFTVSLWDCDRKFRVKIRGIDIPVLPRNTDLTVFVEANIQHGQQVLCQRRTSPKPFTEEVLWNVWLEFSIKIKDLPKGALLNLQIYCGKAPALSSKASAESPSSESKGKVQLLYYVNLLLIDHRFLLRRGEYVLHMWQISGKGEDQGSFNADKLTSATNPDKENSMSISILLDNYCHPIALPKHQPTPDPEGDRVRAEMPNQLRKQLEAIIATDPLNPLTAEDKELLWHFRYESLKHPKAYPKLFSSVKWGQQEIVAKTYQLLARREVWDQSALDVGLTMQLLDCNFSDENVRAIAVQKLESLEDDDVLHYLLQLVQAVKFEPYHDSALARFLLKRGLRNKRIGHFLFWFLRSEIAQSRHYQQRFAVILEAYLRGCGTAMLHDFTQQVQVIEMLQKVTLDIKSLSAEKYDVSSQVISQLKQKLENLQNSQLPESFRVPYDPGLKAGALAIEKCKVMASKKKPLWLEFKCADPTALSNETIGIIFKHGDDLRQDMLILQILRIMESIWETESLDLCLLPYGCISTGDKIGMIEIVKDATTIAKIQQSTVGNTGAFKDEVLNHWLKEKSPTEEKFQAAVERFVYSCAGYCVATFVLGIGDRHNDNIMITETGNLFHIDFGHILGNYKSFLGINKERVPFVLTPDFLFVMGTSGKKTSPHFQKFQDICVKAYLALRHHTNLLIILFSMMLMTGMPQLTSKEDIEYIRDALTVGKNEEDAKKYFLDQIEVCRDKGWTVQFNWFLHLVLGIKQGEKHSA

For `CN(C)c1ccc(-c2nc(Oc3ccc4[nH]ccc4c3)c3cnn(C)c3n2)cc1` [Example 40, 4-[4-(1H-indol-5-yloxy)-1-methyl-1H-pyrazolo[3,4-d]pyrimidin-6-yl]-N,N-dimethylaniline], the IC50 (PI3K-γ) was greater than 10 µM and the IC50 (PI3K-α) was 3.78 µM.

Compound `Cn1ncc2c(Oc3ccc4[nH]ccc4c3)nc(-c3cccc(C#N)c3)nc21` [Example 43, 3-[4-(1H-indol-5-yloxy)-1-methyl-1H-pyrazolo[3,4-d]pyrimidin-6-yl]benzonitrile] has an IC50 (PI3K-γ) of 1.61 µM, an IC50 (PI3K-α) of 0.598 µM and an IC50 (mTOR) of 8.4 µM.

For `CC(=O)Nc1cccc(Nc2nc(-c3ccccc3)nc3c2cnn3C2CCNCC2)c1` [Example 15, N-{3-[(6-phenyl-1-piperidin-4-yl-1H-pyrazolo[3,4-d]pyrimidin-4-yl)amino]phenyl}acetamide], the IC50 (PI3K-γ) was 8.3 µM and the IC50 (PI3K-α) was greater than 10 µM.

With `CC(=O)Nc1ccc(Oc2nc(-c3cccc(C(F)(F)F)c3)nc3c2cnn3C)cc1` [Example 52, N-[4-({1-methyl-6-[3-(trifluoromethyl)phenyl]-1H-pyrazolo[3,4-d]pyrimidin-4-yl}oxy)phenyl]acetamide] the IC50 (PI3K-γ) was 10.5 µM and the IC50 (PI3K-α) was 1.33 µM.

In the case of `CC(=O)Nc1ccc(Oc2nc(-c3cccc(-c4ccccc4)c3)nc3c2cnn3C)cc1` [Example 53, N-{4-[(6-biphenyl-3-yl-1-methyl-1H-pyrazolo[3,4-d]pyrimidin-4-yl)oxy]phenyl}acetamide], the IC50 (PI3K-γ) is reported as greater than 10 µM and the IC50 (PI3K-α) is reported as 4.62 µM.

In the case of `NC(=O)c1ccc(Nc2nc(-c3ccc(O)cc3)nc3c2cnn3C2CCN(Cc3ccccc3)CC2)cc1` [Example 24, 4-{[1-(1-benzylpiperidin-4-yl)-6-(4-hydroxyphenyl)-1H-pyrazolo[3,4-d]pyrimidin-4-yl]amino}benzamide], the IC50 (PI3K-γ) is reported as 5.25 µM and the IC50 (PI3K-α) is reported as 5.45 µM.

`Cn1ncc2c(Oc3ccc4[nH]ccc4c3)nc(-c3cccc(-c4ccccc4)c3)nc21` [Example 44, 6-biphenyl-3-yl-4-(1H-indol-5-yloxy)-1-methyl-1H-pyrazolo[3,4-d]pyrimidine] was tested, and the IC50 (PI3K-γ) was greater than 10 µM and the IC50 (PI3K-α) was 2.87 µM.

`CC(=O)Nc1cccc(Nc2nc(-c3ccccc3)nc3c2cnn3C2CCN(Cc3ccccc3)CC2)c1` [Example 5, N-(3-{[1-(1-benzylpiperidin-4-yl)-6-phenyl-1H-pyrazolo[3,4-d]pyrimidin-4-yl]amino}phenyl)acetamide] gave an IC50 (PI3K-γ) of 7 µM and an IC50 (PI3K-α) of 8.31 µM.

Compound `NC(=O)c1ccc(Nc2nc(-c3ccccc3O)nc3c2cnn3C2CCN(Cc3ccccc3)CC2)cc1` [Example 26, 4-{[1-(1-benzylpiperidin-4-yl)-6-(2-hydroxyphenyl)-1H-pyrazolo[3,4-d]pyrimidin-4-yl]amino}benzamide] has an IC50 (PI3K-γ) of 4 µM and an IC50 (PI3K-α) of 2.25 µM.

`COc1ccc(Nc2nc(-c3cccc(O)c3)nc3c2cnn3C2CCNCC2)cc1OC` [Example 17, 3-{4[(3,4-dimethoxyphenyl)amino]-1-piperidin-4-yl-1H-pyrazolo[3,4-d]pyrimidin-6-yl}phenol] showed an IC50 (PI3K-γ) of 5.84 µM and an IC50 (PI3K-α) greater than 10 µM.

Work on `Cn1ncc2c(Oc3ccc4[nH]ccc4c3)nc(-c3cccc(C(F)(F)F)c3)nc21` [Example 42, 4-(1H-indol-5-yloxy)-1-methyl-6-[3-(trifluoromethyl)phenyl]-1H-pyrazolo[3,4-d]pyrimidine] yielded an IC50 (PI3K-γ) of 0.956 µM and an IC50 (PI3K-α) of 1.21 µM.

With `c1ccc(CN2CCC(n3ncc4c(Nc5ccc6[nH]ccc6c5)nc(-c5ccccc5)nc43)CC2)cc1` [Example 4, 1-(1-benzylpiperidin-4-yl)-N-1H-indol-5-yl-6-phenyl-1H-pyrazolo[3,4-d]pyrimidin-4-amine] the IC50 (PI3K-γ) was 10.1 µM and the IC50 (PI3K-α) was greater than 10 µM.

`COc1cccc(-c2nc(Nc3ccc(C(N)=O)cc3)c3cnn(C4CCN(Cc5ccccc5)CC4)c3n2)c1` [Example 23, 4-{[1-(1-benzylpiperidin-4-yl)-6-(3-methoxyphenyl)-1H-pyrazolo[3,4-d]pyrimidin-4-yl]amino}benzamide] was tested, and the IC50 (PI3K-γ) was 2.75 µM and the IC50 (PI3K-α) was 2.65 µM.

Work on `NC(=O)c1ccc(Nc2nc(-c3cccc(O)c3)nc3c2cnn3C2CCN(Cc3ccccc3)CC2)cc1` [Example 6, 4-{[1-(1-benzylpiperidin-4-yl)-6-(3-hydroxyphenyl)-1H-pyrazolo[3,4-d]pyrimidin-4-yl]amino}benzamide] yielded an IC50 (PI3K-γ) of 7 µM and an IC50 (PI3K-α) of 3.5 µM.

`Oc1cccc(-c2nc(Nc3ccc4[nH]ccc4c3)c3cnn(C4CCN(Cc5ccccc5)CC4)c3n2)c1` [Example 9, 3-[1-(1-benzylpiperidin-4-yl)-4-(1H-indol-5-ylamino)-1H-pyrazolo[3,4-d]pyrimidin-6-yl]phenol] was tested, and the IC50 (PI3K-γ) was 13.1 µM and the IC50 (PI3K-α) was greater than 10 µM.

`NC(=O)c1cccc(Nc2nc(-c3cccc(O)c3)nc3c2cnn3C2CCN(Cc3ccccc3)CC2)c1` [Example 8, 3-{[1-(1-benzylpiperidin-4-yl)-6-(3-hydroxyphenyl)-1H-pyrazolo[3,4-d]pyrimidin-4-yl]amino}benzamide] gave an IC50 (PI3K-γ) of 7 µM and an IC50 (PI3K-α) of 6.03 µM.

`NC(=O)c1cccc(Nc2nc(-c3ccccc3)nc3c2cnn3C2CCN(Cc3ccccc3)CC2)c1` [Example 3, 3-{[1-(1-benzylpiperidin-4-yl)-6-phenyl-1H-pyrazolo[3,4-d]pyrimidin-4-yl]amino}benzamide] showed an IC50 (PI3K-γ) of 5.02 µM and an IC50 (PI3K-α) of 7.28 µM.

In the case of `COc1ccc(N(C)c2nc(-c3ccccc3)nc3c2cnn3C)cc1OC` [Example 36, N-(3,4-dimethoxyphenyl)-N,1-dimethyl-6-phenyl-1H-pyrazolo[3,4-d]pyrimidin-4-amine], the IC50 (PI3K-α) is reported as greater than 9.75 µM.

Work on `COc1ccc(Oc2nc(-c3ccc(N(C)C)cc3)nc3c2cnn3C)cc1OC` [Example 47, 4-[4-(3,4-dimethoxyphenoxy)-1-methyl-1H-pyrazolo[3,4-d]pyrimidin-6-yl]-N,N-dimethylaniline] yielded an IC50 (PI3K-γ) greater than 10 µM and an IC50 (PI3K-α) of 6.04 µM.

`Oc1cccc(-c2nc(Nc3ccc4[nH]ccc4c3)c3cnn(C4CCNCC4)c3n2)c1` [Example 19, 3-[4-(1H-indol-5-ylamino)-1-piperidin-4-yl-1H-pyrazolo[3,4-d]pyrimidin-6-yl]phenol] gave an IC50 (PI3K-γ) of 5.93 µM and an IC50 (PI3K-α) greater than 10 µM.

Work on `NC(=O)c1ccc(Nc2nc(-c3ccccc3)nc3c2cnn3C2CCN(Cc3ccccc3)CC2)cc1` [Example 1, 4-{[1-(1-benzylpiperidin-4-yl)-6-phenyl-1H-pyrazolo[3,4-d]pyrimidin-4-yl]amino}benzamide] yielded an IC50 (PI3K-γ) of 7 µM and an IC50 (PI3K-α) of 6.11 µM.

Compound `COc1ccc(Nc2nc(-c3ccccc3)nc3c2cnn3C2CCNCC2)cc1OC` [Example 13, N-(3,4-dimethoxyphenyl)-6-phenyl-1-piperidin-4-yl-1H-pyrazolo[3,4-d]pyrimidin-4-amine] has an IC50 (PI3K-γ) of 7.7 µM and an IC50 (PI3K-α) greater than 10 µM.

Work on `COc1ccc(Nc2nc(-c3cccc(O)c3)nc3c2cnn3C2CCN(Cc3ccccc3)CC2)cc1OC` [Example 7, 3-{1-(1-benzylpiperidin-4-yl)-4-[(3,4-dimethoxyphenyl)amino]-1H-pyrazolo[3,4-d]pyrimidin-6-yl}phenol] yielded an IC50 (PI3K-γ) of 5.92 µM and an IC50 (PI3K-α) greater than 10 µM.

`CC(=O)Nc1ccc(Oc2nc(-c3ccc(N(C)C)cc3)nc3c2cnn3C)cc1` [Example 51, N-[4-({6-[4-(dimethylamino)phenyl]-1-methyl-1H-pyrazolo[3,4-d]pyrimidin-4-yl}oxy)phenyl]acetamide] gave an IC50 (PI3K-γ) greater than 10 µM and an IC50 (PI3K-α) of 4.96 µM.

`NC(=O)c1cccc(Nc2nc(-c3cccc(O)c3)nc3c2cnn3C2CCNCC2)c1` [Example 18, 3-{[6-(3-hydroxyphenyl)-1-piperidin-4-yl-1H-pyrazolo[3,4-d]pyrimidin-4-yl]amino}benzamide] was tested, and the IC50 (PI3K-γ) was 9.72 µM and the IC50 (PI3K-α) was greater than 10 µM.

In the case of `NC(=O)c1ccc(Nc2nc(-c3cccc(C(F)(F)F)c3)nc3c2cnn3C2CCN(Cc3ccccc3)CC2)cc1` [Example 25, 4-({1-(1-benzylpiperidin-4-yl)-6-[3-(trifluoromethyl)phenyl]-1H-pyrazolo[3,4-d]pyrimidin-4-yl}amino)benzamide], the IC50 (PI3K-γ) is reported as 2.25 µM and the IC50 (PI3K-α) is reported as 3.43 µM.

Work on `NC(=O)c1ccc(Nc2nc(-c3cccc([N+](=O)[O-])c3)nc3c2cnn3C2CCN(Cc3ccccc3)CC2)cc1` [Example 21, 4-{[1-(1-benzylpiperidin-4-yl)-6-(3-nitrophenyl)-1H-pyrazolo[3,4-d]pyrimidin-4-yl]amino}benzamide] yielded an IC50 (PI3K-γ) of 2.46 µM and an IC50 (PI3K-α) of 2.81 µM.

Compound `COc1ccc(Nc2nc(-c3ccc(O)cc3)nc3c2cnn3C2CCN(Cc3ccccc3)CC2)cc1OC` [Example 30, 4-{1-(1-benzylpiperidin-4-yl)-4-[(3,4-dimethoxyphenyl)amino]-1H-pyrazolo[3,4-d]pyrimidin-6-yl}phenol] has an IC50 (PI3K-γ) of 3.32 µM and an IC50 (PI3K-α) greater than 5.94 µM.

Work on `COc1ccc(Nc2nc(-c3ccccc3)nc3c2cnn3C2CCN(Cc3ccccc3)CC2)cc1OC` [Example 2, 1-(1-benzylpiperidin-4-yl)-N-(3,4-dimethoxyphenyl)-6-phenyl-1H-pyrazolo[3,4-d]pyrimidin-4-amine] yielded an IC50 (PI3K-γ) of 5.1 µM and an IC50 (PI3K-α) greater than 10 µM.

Compound `CC(=O)Nc1cccc(Nc2nc(-c3cccc(O)c3)nc3c2cnn3C2CCN(Cc3ccccc3)CC2)c1` [Example 10, N-(3-{[1-(1-benzylpiperidin-4-yl)-6-(3-hydroxyphenyl)-1H-pyrazolo[3,4-d]pyrimidin-4-yl]amino}phenyl)acetamide] has an IC50 (PI3K-γ) of 4.66 µM and an IC50 (PI3K-α) of 6.18 µM.
